Measurements: patent US12655130B2 (ASSEMBLY BIOSCIENCES, INC., priority 2020, dated 2026)

System: HBV viral load (viral production from HepAD38 cells)
Experiment: Activity of test compounds on viral production from HepAD38 cells (viral load by qPCR of HBV core sequence)
Type: cell-based
Conditions: Hepatitis B virus, HePAD38, 120 h, viral load lowering, 5 days, qPCR of supernatant, read-out: VL HepAD38 EC50 range
Procedure, shortened: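 EC50 and CC50 come from four-parameter logistic fits: HBV core DNA in supernatant by TaqMan qPCR against DNA standards, normalised to DMSO controls, and cell viability by CellTiter-Glo. Cells were plated at 50,000/well without tetracycline (2% FBS) and exposed to compounds (highest 10 μM) for 5 days, 37 °C.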

Structure (SMILES)	EC50
Cn1cnc(C2CC3CC(O)(c4cc(C(C)(C)C(N)=O)nn4C)CC3C2)c1C(=O)Nc1ccc(F)c(Cl)c1 (stereo not shown) [Example 106, 4-(5-(3-(1-amino-2-methyl-1-oxopropan-2-yl)-1-methyl-1H-pyrazol-5-yl)-5-hydroxyoctahydropentalen-2-yl)-N-(3-chloro-4-fluorophenyl)-1-methyl-1H-imidazole-5-carboxamide]	< 10 nM
Cn1cnc(C2CC3CC(O)(c4cc(C(O)C(F)(F)F)nn4C)CC3C2)c1C(=O)Nc1ccc(F)c(C#N)c1 (stereo not shown) [Example 107, N-(3-Cyano-4-fluorophenyl)-4-(5-hydroxy-5-(1-methyl-3-(2,2,2-trifluoro-1-hydroxyethyl)-1H-pyrazol-5-yl)octahydropentalen-2-yl)-1-methyl-1H-imidazole-5-carboxamide]	< 10 nM
Cn1cnc(C2CC3CC(O)(c4cc(C(C)(C)O)nn4C)CC3C2)c1C(=O)Nc1ccc(F)c(C#N)c1 (stereo not shown) [Example 108, N-(3-Cyano-4-fluorophenyl)-4-(5-hydroxy-5-(3-(2-hydroxypropan-2-yl)-1-methyl-1H-pyrazol-5-yl)octahydropentalen-2-yl)-1-methyl-1H-imidazole-5-carboxamide]	< 10 nM
CC(O)c1cc(C2(O)CC3CC(c4ncn(C)c4C(=O)Nc4ccc(F)c(Cl)c4)CC3C2)n(C)n1 (stereo not shown) [Example 109, N-(3-Chloro-4-fluorophenyl)-4-(5-hydroxy-5-(3-(1-hydroxyethyl)-1-methyl-1H-pyrazol-5-yl)octahydropentalen-2-yl)-1-methyl-1H-imidazole-5-carboxamide]	< 10 nM
Cn1cc(C2(O)CC3CC(c4nc(Cl)n(C)c4C(=O)Nc4ccc(F)c(Cl)c4)CC3C2)c(C(F)(F)F)n1 (stereo not shown) [Example 110, 2-Chloro-N-(3-chloro-4-fluorophenyl)-4-(5-hydroxy-5-(1-methyl-3-(trifluoromethyl)-1H-pyrazol-4-yl)octahydropentalen-2-yl)-1-methyl-1H-imidazole-5-carboxamide]	< 10 nM
Cn1nc(C(F)(F)F)cc1C1(O)CC2CC(c3nc(Cl)n(C)c3C(=O)Nc3ccc(F)c(Cl)c3)CC2C1 (stereo not shown) [Example 111, 2-Chloro-N-(3-chloro-4-fluorophenyl)-4-(5-hydroxy-5-(1-methyl-3-(trifluoromethyl)-1H-pyrazol-5-yl)octahydropentalen-2-yl)-1-methyl-1H-imidazole-5-carboxamide]	10 to 50 nM
CC(N)c1cc(C2(O)CC3CC(c4ncn(C)c4C(=O)Nc4ccc(F)c(Cl)c4)CC3C2)n(C)n1 (stereo not shown) [Example 112, 4-(5-(3-(1-Aminoethyl)-1-methyl-1H-pyrazol-5-yl)-5-hydroxyoctahydropentalen-2-yl)-N-(3-chloro-4-fluorophenyl)-1-methyl-1H-imidazole-5-carboxamide]	10 to 50 nM
CCCCC1(O)CC2CC(c3nc(Cl)n(C)c3C(=O)Nc3ccc(F)c(Cl)c3)CC2C1 (stereo not shown) [Example 113, 4-(5-Butyl-5-hydroxyoctahydropentalen-2-yl)-2-chloro-N-(3-chloro-4-fluorophenyl)-1-methyl-1H-imidazole-5-carboxamide]	< 10 nM
Cn1cc(C2(O)CC3CC(c4ncn(C)c4C(=O)Nc4ccc(F)c(C#N)c4)CC3C2)c(C(F)(F)F)n1 (stereo not shown) [Example 115, N-(3-Cyano-4-fluorophenyl)-4-(5-hydroxy-5-(1-methyl-3-(trifluoromethyl)-1H-pyrazol-4-yl)octahydropentalen-2-yl)-1-methyl-1H-imidazole-5-carboxamide]	< 10 nM
Cn1cnc(C2CC3CC(O)(c4cc[nH]n4)CC3C2)c1C(=O)Nc1ccc(F)c(Cl)c1 (stereo not shown) [Example 116, N-(3-chloro-4-fluorophenyl)-4-(5-hydroxy-5-(1H-pyrazol-3-yl)octahydropentalen-2-yl)-1-methyl-1H-imidazole-5-carboxamide]	< 10 nM
Cn1cc(Br)c(C2(O)CC3CC(c4ncn(C)c4C(=O)Nc4ccc(F)c(Cl)c4)CC3C2)n1 (stereo not shown) [Example 117, 4-(5-(4-bromo-1-methyl-1H-pyrazol-3-yl)-5-hydroxyoctahydropentalen-2-yl)-N-(3-chloro-4-fluorophenyl)-1-methyl-1H-imidazole-5-carboxamide]	< 10 nM
Cn1ccc(C2(O)CC3CC(c4ncn(C)c4C(=O)Nc4ccc(F)c(Cl)c4)CC3C2)n1 (stereo not shown) [Example 118, N-(3-chloro-4-fluorophenyl)-4-(5-hydroxy-5-(1-methyl-1H-pyrazol-3-yl)octahydropentalen-2-yl)-1-methyl-1H-imidazole-5-carboxamide]	< 10 nM
CCn1nccc1C1(O)CC2CC(c3ncn(C)c3C(=O)Nc3ccc(F)c(Cl)c3)CC2C1 (stereo not shown) [Example 119, N-(3-chloro-4-fluorophenyl)-4-(5-(1-ethyl-1H-pyrazol-5-yl)-5-hydroxyoctahydropentalen-2-yl)-1-methyl-1H-imidazole-5-carboxamide]	< 10 nM
CC(C)n1nccc1C1(O)CC2CC(c3ncn(C)c3C(=O)Nc3ccc(F)c(Cl)c3)CC2C1 (stereo not shown) [Example 120, N-(3-chloro-4-fluorophenyl)-4-(5-hydroxy-5-(1-isopropyl-1H-pyrazol-5-yl)octahydropentalen-2-yl)-1-methyl-1H-imidazole-5-carboxamide]	< 10 nM
Cn1cc(C2(O)CC3CC(c4ncn(C)c4C(=O)Nc4ccc(F)c(Cl)c4)CC3C2)cn1 (stereo not shown) [Example 121, N-(3-chloro-4-fluorophenyl)-4-(5-hydroxy-5-(1-methyl-1H-pyrazol-4-yl)octahydropentalen-2-yl)-1-methyl-1H-imidazole-5-carboxamide]	< 10 nM
Cn1cnc(C2CC3CC(O)(c4c(Cl)cnn4C)CC3C2)c1C(=O)Nc1ccc(F)c(Cl)c1 (stereo not shown) [Example 122, 4-(5-(4-chloro-1-methyl-1H-pyrazol-5-yl)-5-hydroxyoctahydro-pentalen-2-yl)-N-(3-chloro-4-fluorophenyl)-1-methyl-1H-imidazole-5-carboxamide]	< 10 nM
Cn1cnc(C2CC3CC(O)(Cc4c(Br)cnn4C)CC3C2)c1C(=O)Nc1ccc(F)c(Cl)c1 (stereo not shown) [Example 123, 4-(5-((4-bromo-1-methyl-1H-pyrazol-5-yl)methyl)-5-hydroxyoctahydropentalen-2-yl)-N-(3-chloro-4-fluorophenyl)-1-methyl-1H-imidazole-5-carboxamide]	< 10 nM
Cn1cnc(C2CC3CC(O)(c4c(F)cnn4C)CC3C2)c1C(=O)Nc1ccc(F)c(Cl)c1 (stereo not shown) [Example 124, N-(3-chloro-4-fluorophenyl)-4-(5-(4-fluoro-1-methyl-1H-pyrazol-5-yl)-5-hydroxyoctahydropentalen-2-yl)-1-methyl-1H-imidazole-5-carboxamide]	< 10 nM
Cn1cnc(C2CC3CC(O)(c4c(C#N)cnn4C)CC3C2)c1C(=O)Nc1ccc(F)c(Cl)c1 (stereo not shown) [Example 125, N-(3-chloro-4-fluorophenyl)-4-(5-(4-cyano-1-methyl-1H-pyrazol-5-yl)-5-hydroxyoctahydropentalen-2-yl)-1-methyl-1H-imidazole-5-carboxamide]	< 10 nM
Cn1cnc(C2CC3CC(O)(c4c(C(N)=O)cnn4C)CC3C2)c1C(=O)Nc1ccc(F)c(Cl)c1 (stereo not shown) [Example 126, 5-(5-(5-((3-chloro-4-fluorophenyl)carbamoyl)-1-methyl-1H-imidazol-4-yl)-2-hydroxyoctahydropentalen-2-yl)-1-methyl-1H-pyrazole-4-carboxamide]	< 10 nM
Cn1cnc(C2CC3CC(O)(c4c([N+](=O)[O-])cnn4C)CC3C2)c1C(=O)Nc1ccc(F)c(Cl)c1 (stereo not shown) [Example 127, N-(3-chloro-4-fluorophenyl)-4-(5-hydroxy-5-(1-methyl-4-nitro-1H-pyrazol-5-yl)octahydropentalen-2-yl)-1-methyl-1H-imidazole-5-carboxamide]	10 to 50 nM
Cn1cc(CC2(O)CC3CC(c4ncn(C)c4C(=O)Nc4ccc(F)c(Cl)c4)CC3C2)cn1 (stereo not shown) [Example 130, N-(3-chloro-4-fluorophenyl)-4-(5-hydroxy-5-((1-methyl-1H-pyrazol-4-yl)methyl)octahydropentalen-2-yl)-1-methyl-1H-imidazole-5-carboxamide]	< 10 nM
Cc1cnn(C)c1C1(O)CC2CC(c3ncn(C)c3C(=O)Nc3ccc(F)c(Cl)c3)CC2C1 (stereo not shown) [Example 131, N-(3-chloro-4-fluorophenyl)-4-(5-(1,4-dimethyl-1H-pyrazol-5-yl)-5-hydroxyoctahydropentalen-2-yl)-1-methyl-1H-imidazole-5-carboxamide]	< 10 nM
Cn1cc(C2(O)CC3CC(c4ncn(C)c4C(=O)Nc4ccc(F)c(Cl)c4)CC3C2)c(C(F)F)n1 (stereo not shown) [Example 132, N-(3-chloro-4-fluorophenyl)-4-(5-(3-(difluoromethyl)-1-methyl-1H-pyrazol-4-yl)-5-hydroxyoctahydropentalen-2-yl)-1-methyl-1H-imidazole-5-carboxamide]	< 10 nM
Cn1cnc(C2CC3CC(O)(c4cc(C(F)F)nn4C)CC3C2)c1C(=O)Nc1ccc(F)c(Cl)c1 (stereo not shown) [Example 133, N-(3-chloro-4-fluorophenyl)-4-(5-(3-(difluoromethyl)-1-methyl-1H-pyrazol-5-yl)-5-hydroxyoctahydropentalen-2-yl)-1-methyl-1H-imidazole-5-carboxamide]	< 10 nM
COc1cnn(C)c1C1(O)CC2CC(c3ncn(C)c3C(=O)Nc3ccc(F)c(Cl)c3)CC2C1 (stereo not shown) [Example 134, N-(3-chloro-4-fluorophenyl)-4-(5-hydroxy-5-(4-methoxy-1-methyl-1H-pyrazol-5-yl)octahydropentalen-2-yl)-1-methyl-1H-imidazole-5-carboxamide]	< 10 nM
Cc1cn[nH]c1C1(O)CC2CC(c3ncn(C)c3C(=O)Nc3ccc(F)c(Cl)c3)CC2C1 (stereo not shown) [Example 135, N-(3-chloro-4-fluorophenyl)-4-(5-hydroxy-5-(4-methyl-1H-pyrazol-5-yl)octahydropentalen-2-yl)-1-methyl-1H-imidazole-5-carboxamide]	< 10 nM
Cn1cc(F)c(C2(O)CC3CC(c4ncn(C)c4C(=O)Nc4ccc(F)c(Cl)c4)CC3C2)n1 (stereo not shown) [Example 136, N-(3-chloro-4-fluorophenyl)-4-(5-(4-fluoro-1-methyl-1H-pyrazol-3-yl)-5-hydroxyoctahydropentalen-2-yl)-1-methyl-1H-imidazole-5-carboxamide]	< 10 nM
